Results taken from patent US20240350418A1, “LIPID-BASED COMPOSITION FOR ORAL ADMINISTRATION OF BRADYKININ B2-RECEPTOR ANTAGONISTS” (PHARVARIS GMBH, priority 2021, published 2024).

How the values were obtained:
[1] = molecular target: T1, rat B2 receptor (Rattus norvegicus, UniProt P25023); experiment: In vitro pharmacology testing, antagonist potency; type: biochemical
T1 sequence (P25023 1-396): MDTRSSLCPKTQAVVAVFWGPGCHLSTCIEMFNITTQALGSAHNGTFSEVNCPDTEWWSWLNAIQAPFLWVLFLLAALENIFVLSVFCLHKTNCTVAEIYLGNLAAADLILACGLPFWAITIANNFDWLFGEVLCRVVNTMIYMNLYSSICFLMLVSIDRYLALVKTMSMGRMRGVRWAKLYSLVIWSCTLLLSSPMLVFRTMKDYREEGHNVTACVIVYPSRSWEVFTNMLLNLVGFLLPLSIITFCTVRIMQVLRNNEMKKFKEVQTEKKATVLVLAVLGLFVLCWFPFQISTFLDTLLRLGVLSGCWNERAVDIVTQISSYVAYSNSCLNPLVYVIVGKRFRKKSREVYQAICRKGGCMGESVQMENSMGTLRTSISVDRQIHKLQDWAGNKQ

[2] = molecular target: T2, mouse B2 receptor (Mus musculus, UniProt P32299); experiment: In vitro pharmacology testing, antagonist potency; type: biochemical
T2 sequence (P32299 1-392): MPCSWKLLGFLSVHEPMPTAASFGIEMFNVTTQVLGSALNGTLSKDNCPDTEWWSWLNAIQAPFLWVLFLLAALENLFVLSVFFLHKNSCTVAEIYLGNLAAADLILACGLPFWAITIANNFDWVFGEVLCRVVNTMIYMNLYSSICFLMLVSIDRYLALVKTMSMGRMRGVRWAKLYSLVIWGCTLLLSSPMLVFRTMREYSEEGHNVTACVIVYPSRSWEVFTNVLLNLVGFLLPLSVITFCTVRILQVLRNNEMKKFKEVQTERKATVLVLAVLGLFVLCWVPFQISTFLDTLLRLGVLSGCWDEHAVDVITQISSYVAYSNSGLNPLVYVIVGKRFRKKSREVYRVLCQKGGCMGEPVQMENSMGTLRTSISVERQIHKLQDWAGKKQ

[3] = molecular target: T3, dog B2 receptor (Canis lupus familiaris, UniProt Q9BDQ4); experiment: In vitro pharmacology testing, antagonist potency; type: biochemical
T3 sequence (Q9BDQ4 1-392): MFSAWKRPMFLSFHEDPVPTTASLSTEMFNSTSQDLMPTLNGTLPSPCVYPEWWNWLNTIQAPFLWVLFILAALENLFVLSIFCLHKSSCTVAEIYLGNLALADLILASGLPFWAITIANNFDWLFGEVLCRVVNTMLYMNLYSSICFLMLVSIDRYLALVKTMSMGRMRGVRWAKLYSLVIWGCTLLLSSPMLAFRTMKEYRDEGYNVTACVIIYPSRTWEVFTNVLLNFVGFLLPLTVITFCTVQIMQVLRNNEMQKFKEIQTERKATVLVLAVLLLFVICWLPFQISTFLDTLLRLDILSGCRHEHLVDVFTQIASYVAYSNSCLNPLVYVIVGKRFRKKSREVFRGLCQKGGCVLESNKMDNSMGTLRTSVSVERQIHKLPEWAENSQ

[4] = Single dose pharmacokinetic study in monkeys; type: in vivo, Cynomolgus monkeys; details: after administration, except one animal treated with the Test Formulation
Procedure: The pharmacokinetic properties of a liquid composition according to the invention after a single oral administration in Cynomolgus monkeys was studied and compared with those of a suspension of the same API in an aqueous carrier comprising methylcellulose (1 wt. %). The Test Formulation was based on composition E of Example 1, except that the concentration of the API was 5 mg/mL in essentially the same liquid vehicle as composition E. The Comparative Formulation comprised the same API at a concentration of 2 mg/mL, formulated as an aqueous drug suspension further comprising methylcellulose (1 wt %). […]
The pharmacokinetic parameters were determined from the individual plasma concentrations by non-compartmental analysis, using Kinetica™ 4.4.1 (Thermo Fisher). […]
Maximum plasma concentration (Cmax), sampling time of Cmax (Tmax), and sampling time of the last plasma concentration >LLOQ (Tlast) parameters were determined from the observations. The area under the plasma concentration-time curve from the time of dosing to the last quantifiable concentration was calculated using the linear up/logarithmic down trapezoidal rule (AUClast). At least 3 consecutive quantifiable concentrations had to be available for AUC calculation. […]
The percentage of extrapolated AUC from Tlast to infinity was calculated by Kinetica™ 4.4.1, using the following equation: […]

[5] = molecular target: T4, bradykinin B2 receptor (Homo sapiens, UniProt P30411); experiment: Estimated therapeutic efficacious threshold plasma concentration; type: in vivo
T4 sequence (P30411 1-391): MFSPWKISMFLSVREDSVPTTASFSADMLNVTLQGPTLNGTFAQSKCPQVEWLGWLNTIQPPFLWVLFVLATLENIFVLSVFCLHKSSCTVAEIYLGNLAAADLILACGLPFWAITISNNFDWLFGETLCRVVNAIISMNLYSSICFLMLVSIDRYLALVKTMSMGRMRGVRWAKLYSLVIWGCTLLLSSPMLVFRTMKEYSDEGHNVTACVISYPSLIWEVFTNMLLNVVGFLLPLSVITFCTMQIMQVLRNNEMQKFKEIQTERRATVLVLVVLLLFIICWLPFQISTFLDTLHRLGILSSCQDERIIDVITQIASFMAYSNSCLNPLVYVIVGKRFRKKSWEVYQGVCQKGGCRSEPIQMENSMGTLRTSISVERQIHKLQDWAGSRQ

[6] = molecular target: T5, human B2 receptor (Homo sapiens, UniProt P30411); experiment: In vitro pharmacology testing, antagonist potency; type: biochemical
T5 sequence (P30411 1-391): T4 sequence (P30411 1-391)

[7] = system: monkey B2 receptor; experiment: In vitro pharmacology testing, antagonist potency; type: biochemical

antagonist potency [1]: low antagonist potency
antagonist potency [2]: low antagonist potency
antagonist potency [3]: low antagonist potency
time up to which API plasma concentrations were quantifiable [4]: up to 24 hours
estimated EC50 (therapeutic efficacious threshold plasma concentration) [5]: 2.4 ng/mL
estimated EC85 (therapeutic efficacious threshold plasma concentration) [5]: 13.8 ng/mL
antagonist potency [6]: high antagonist potency
antagonist potency [7]: high antagonist potency
SMILES: [2H][C@@](C)(NC(=O)COC(F)F)c1cc(F)cc(Cl)c1COc1cccc2c(-c3ncnn3C)cc(C)nc12 [API, (S)-N-(1-deutero-1-(3-chloro-5-fluoro-2-((2-methyl-4-(1-methyl-1H-1,2,4-triazol-5-yl)quinolin-8-yloxy)methyl)phenyl)ethyl)-2-(difluoromethoxy)acetamide monohydrate]
